Laboratory results as given in a melting point compilation (Tetko et al.; mined from patent text by program, amines drawn as free bases though some values may be those of a salt).

Row | Compound | melting point [°C]
1 | c1ccc(N2CCNNCC2)cc1 | 211 to 218
2 | Cc1oc(-c2ccccc2)nc1COc1ccc(COc2ccc3ccccc3c2CC#N)cc1 | 178 to 179
3 | O=C(CCl)c1ccc(OCc2nnn[nH]2)cc1 | 194 to 196
4 | COc1ccc(N2CCN(c3c(C)c(C)c4c(c3C3CC3)CC(C)(C)O4)CC2)cc1 | 121 to 122
5 | CNc1ccc(-c2cnc3[nH]cc(C(=O)C4(C)CCCCC4)c3n2)cc1 | 273 to 275
6 | CCC1CCN(Cc2ccc(COc3cccc4c3CN(C3CCC(=O)NC3=O)C4=O)cc2)CC1 (stereo unspecified) | 180 to 182
7 | CCC(=NNC(=O)c1cccc(C(F)(F)F)c1)c1cccnc1 | 119
8 | CC#CCOc1ccc(S(=O)(=O)C(C(=O)NO)C2CCN(C(=O)OC(C)(C)C)CC2)cc1 (stereo unspecified) | 80
9 | C=C[C@@]12CCC[C@@H](C#N)[C@@H]1C(=O)CC2 | 41 to 42
10 | NC(N)=Nc1nc(-c2cccc(CSc3nc4ccccc4[nH]3)n2)cs1 | 209 to 211
11 | O=S(=O)(Nc1cccc(Cl)c1F)c1cc(S(=O)(=O)Nc2cccc(Cl)c2F)c2cc(O)ccc2c1 | 126 to 128
12 | OCc1cn(-c2cccc3cccnc23)cn1 | 168 to 170
13 | CCOC(=O)c1cnc2c3ccccc3ccn2c1=O | 183 to 184
14 | CCCCc1nc(CO)c(SCC)n1Cc1ccc(-c2ccccc2C(=O)OC)cc1 | 110
15 | C=C1c2c(C)cccc2NC(=O)N1CC(=O)OCC | 151 to 154
16 | CCN(CC)Cc1ccc(C(N)=O)o1 | 164 to 165
17 | COc1ccc(N2CCN(CCC3OCCc4cc(C#N)ccc43)CC2)cc1 (stereo unspecified) | 86 to 88
18 | CN1CCN(c2ccc(Nc3nccc(-c4c[nH]nc4-c4ccc(Cl)cc4)n3)cc2)CC1 | 282 to 284
19 | COc1cn(-c2ccc(N3CCNC3=O)cc2F)nc(-c2ccnn2-c2ccccc2)c1=O | 259 to 260
20 | CSCCn1c2ccc(C)cc2c(=O)c2c1cnn2C | 125
21 | CN1CCN(c2cccc(N)c2)C(=O)C1 | 139 to 140
22 | CCCCCCCCCCCCCCOc1ccc([N+](=O)[O-])cc1 | 57 to 60
23 | O=C(Nc1cccc(CN2C(=O)[C@H]3CCC[C@H]3Nc3ccccc32)c1)OCc1ccccc1 (relative stereo) | 179 to 180
24 | COc1ccc(NC(=O)c2ccc(OC)c(C34CC5CC(CC(C5)C3)C4)c2)c([N+](=O)[O-])c1 | 208 to 210

Row | Compound | melting point [°C]
25 | O=C1NC(c2ccc(Cl)cc2)Nc2ccccc21 (stereo unspecified) | 190
26 | COC(=O)c1cc(OC)c2ccccc2c1OC | 48 to 50
27 | Nc1cccc(NC(=O)C(F)(F)C(F)(F)F)c1 | 86 to 88
28 | CC(C)(O)c1cnn2c(-c3ccc(F)c(-c4ccc(F)cn4)c3)cnc2n1 | 222
29 | CC(C)(C)c1nnc(N)n(N)c1=O | 223 to 224
30 | CCc1nc2c(N)nc3ccccc3c2n1CC(C)C | 233 to 234
31 | C=CCC(C(=O)NCC#CCN(C)C)(c1ccccc1)c1ccccc1 | 107 to 109
32 | CC(C)(C)OC(=O)N(Cc1ccc(C2CCCCC2)cc1)c1nc(Oc2ccc(F)cc2)c2ncn(CC(=O)O)c2n1 | 119 to 133
33 | O=C1C2=C(c3ccccc3)N(c3ccccc3)C(=O)C2=C(c2ccccc2)N1c1ccccc1 | > 300
34 | COc1ccc(-c2nn(CC3CC3)c(=O)cc2-c2ccncc2)cc1 | 128 to 130
35 | CCn1nc(-c2sc(N)nc2-c2ccccc2)ccc1=O | 232 to 235
36 | CCOC(=O)c1sc(S(C)(=O)=O)c2c1CCc1c(Br)nn(C)c1-2 | 195 to 196
37 | CN(COC(=O)Cc1ccccc1)C(=O)OC(C)(C)C | 96 to 98
38 | CC1=C(CC(=O)O)c2cc(F)ccc2C1=Cc1ccc(S(C)(=O)=O)cc1 | 204 to 206
39 | CC(=O)NC[C@H]1CN(c2ccc(Br)cn2)C(=O)O1 | 166 to 168
40 | N#Cc1cc(-n2ccc(-c3ccc(F)cc3)n2)cc(S(N)(=O)=O)c1 | 184 to 185
41 | CC1Cc2cc3c(cc2C(c2ccc([N+](=O)[O-])cc2)=NN1c1nnns1)OCO3 (stereo unspecified) | 109 to 110
42 | N#CCC1(C#N)CCC2(CC1)OCCO2 | 137
43 | C=CCOc1cccc(-n2cnc(-c3nc(CC)no3)c2)c1 | 73 to 74
44 | CC(=CC(=O)O)c1cccc(-c2cc3c(cc2C)C(C)(C)CCC3(C)C)c1 | 89 to 90
45 | COC(=O)COc1ccc2cc(-c3cnc(-c4cn(C)c5ccccc45)o3)ccc2c1 | 187 to 189
46 | Clc1ccc2c(c1)C(c1ccccc1)=NCc1n[nH]nc1-2 | 199 to 200
47 | NC(=O)c1cc(N)c(Oc2ccccc2)c(S(N)(=O)=O)c1 | 291 to 292
48 | CNC(=NC#N)NCCSc1nccc(NC(N)=NCC(F)(F)F)n1 | 218 to 221

Row | Compound | melting point [°C]
49 | Nc1ccc(Sc2cc(Cl)cc(Cl)c2)c(Cl)c1 | 157 to 160
50 | CN1C2CCC1CC(=NO)C2 | 140 to 142
51 | CC(=O)c1cc2c(s1)SCCN(CCCCCl)C2=O | 132 to 134
52 | C=CCOc1ccc(-c2ccc(O)cc2)cc1 | 168 to 170
53 | CCCc1c(OCCCCCOc2ccc(CCC(=O)O)cc2CCC(=O)O)ccc2c1OCCC2=O | 108 to 109
54 | COC(=O)c1ccc(C=C(C)[N+](=O)[O-])c(Cl)c1 | 74 to 77
55 | O=C1Nc2c(C(F)(F)F)cccc2C1(O)c1cc(Cl)ccc1O (stereo unspecified) | 205 to 207
56 | Cc1cccc(CON2C(C)(C)CC(OC(=O)c3ccccc3)CC2(C)C)c1 | 64 to 65
57 | OCc1c(C2CC2)nn2ccc3c(c12)CCO3 | 139 to 140
58 | COc1ccc2ccc(N3C(=O)C4=C(SCC(OC)CS4)C3OC(=O)N3CCN(C)CC3)nc2n1 (stereo unspecified) | 215
59 | Cc1nc(C)c(CO)c(-c2ccc(F)cc2)n1 | 174 to 176
60 | CCCN(CCC)S(=O)(=O)c1cccc(C(=O)Nc2ccc(Br)cc2)c1 | 160 to 162
61 | Cc1c([N+](=O)[O-])ccc2c1ccn2C | 120 to 123
62 | Cc1cc(C(N)=O)ccc1NC1CCN(Cc2ccccc2)CC1 | 156 to 158
63 | CCCCCc1ccc2cc(Nc3ccc(O)cc3)ccc2c1 | 134 to 135
64 | CC(=NC12CC3CC(CC(C3)C1)C2)NC12CC3CC(CC(C3)C1)C2 | 255 to 258
65 | Cn1cnc(COc2nc3c(nnn3-c3ccccc3)c3ccccc23)n1 | 189 to 190
66 | CCCCNC(=O)[C@@H](C[C@H](O)[C@@H](N)CC1CCCC1)C(C)C | 93 to 94
67 | COc1c(Cl)ccc(-c2cc(N)c(Cl)c(C(=O)OCc3ccc(Cl)cc3Cl)n2)c1F | 165 to 168
68 | CCc1sc2ncnc(N)c2c1-c1ccc(NS(=O)(=O)c2ccccc2)cc1 | 209 to 210
69 | CN(C)Cc1ccc(CSCCNC(=O)C=CC(=O)NCCCOc2cccc(CN3CCCC3)c2)o1 | 126 to 128
70 | COc1ccc2nc(CN(CCN(Cc3ccc4cc(OC)ccc4n3)Cc3ccc4cc(OC)ccc4n3)Cc3ccc4cc(OC)ccc4n3)ccc2c1 | 168 to 170
71 | CN1CCN(c2ccc(C3CCC4(CCC4c4ccccc4)C(=O)N3c3ccccc3)cc2)CC1 (stereo unspecified) | 166 to 168
